Reference: US8946216B2, “Indazole derivatives useful as ERK inhibitors” (Merck Sharp & Dohme Corp., priority 2010, dated 2015)

Tests used:
[1] = target: ERK protein (Homo sapiens, UniProt P28482); test: TdF (Temperature Dependence Fluorescence, thermal shift) assay for ERK; format: binding; settings: read-out: TdF Kd; 3 μM ERK protein, 15, 50 or 100 μM compound, Sypro Orange; Kd calculated from ΔTm; uncertainty estimated ±50%
From the text: Assays: TdF Assay for ERK
The SAR (Structure Activity Relationship) for ERK ligands covered by this invention was interrogated using the TdF (Temperature Dependence Fluorescence) assay or best known as thermal shift assay. The TdF assay was mainly conducted in the 96-well based CHROMO-4 real time fluorescence plate reader (BioRad). The Sypro Orange (Sigma-Aldrich), environmentally sensitive fluorescence dye, was used to monitor the protein folding-unfolding transition. Protein-ligand binding was gauged by the change (or shift) in the unfolding transition temperature (ΔTm) acquired at protein alone with respect to protein in the presence of ligand of interest.
Compound of interest was first prepared in DMSO stock (typical concentration: 10 mM). Sample of 20 μL was then added into the 96-well PCR plate, where it consisted of 3 μM. […] Final percentage of DMSO resided in the sample was 2%. The sample plate was heated from 30° C. to 90° C. with thermal ramping rate of 1 ° C./min. The fluorescence signals were acquired with excitation and emission wavelengths centered at 490 and 560 nm respectively. The instrument thermal stability was ±0.2° C. The melting temperatures (Tm) for ERK protein under aforementioned conditions occurred at 61.0±0.2° C. and 64.8±0.2° C. respectively.
Theoretical Basis for TdF-based Ligand Binding Affinity Constant
The derivation of TdF-based ligand binding affinity constant (Kd) followed closely those previously formulated by Brandts and Lin [2]. In brief, the binding constant of the ligand at the Tm is expressed as below: […]
where T0 is the midpoint of unfolding for unliganded protein and Tm is the midpoint of unfolding in presence of ligand. [LTm] is free ligand at Tm. The ΔHu and ΔCpu are the enthalpy of unfolding and heat capacity change of unfolding for the protein respectively. Following algorithm derived by Winsor and coworker, the T0, ΔHu and ΔCpu can be determined separately from nonlinear regression fitting the protein alone melting curve:
Where F(T) is the observed fluorescence intensity at any temperature T, Yn and Yu are the predicted fluorescence intensities for fully folded and unfolded protein, respectively; mn and mu are slope correction for changes in Yn and Yu with respect to changes in temperature (analogously replace T0 with Tm in the above equation for liganded protein to yield Tm).
where ΔHL(T) is the van't Hoff enthalpy of ligand binding at temperature T and ΔCpL is the heat capacity upon ligand binding. For simplicity, the ΔCpL and ΔHL(T) were set to zero and −7 kcal/mol respectively. The uncertainty in the calculated ligand binding affinity constant was estimated to be ±50%.

[2] = target: unphosphorylated Mouse ERK2 protein (inactive ERK2) (Mus musculus, UniProt P63085); test: Coupled ERK2 (cERK) assay, coupled MEK1/ERK2 IMAP; format: biochemical; settings: 30 min preincubation with inactive ERK2, then activation by human MEK1; 30 μM ATP; fluorescence polarization; read-out: cERK2 IC50
Sequence of unphosphorylated Mouse ERK2 protein (inactive ERK2) (P63085 whole entry): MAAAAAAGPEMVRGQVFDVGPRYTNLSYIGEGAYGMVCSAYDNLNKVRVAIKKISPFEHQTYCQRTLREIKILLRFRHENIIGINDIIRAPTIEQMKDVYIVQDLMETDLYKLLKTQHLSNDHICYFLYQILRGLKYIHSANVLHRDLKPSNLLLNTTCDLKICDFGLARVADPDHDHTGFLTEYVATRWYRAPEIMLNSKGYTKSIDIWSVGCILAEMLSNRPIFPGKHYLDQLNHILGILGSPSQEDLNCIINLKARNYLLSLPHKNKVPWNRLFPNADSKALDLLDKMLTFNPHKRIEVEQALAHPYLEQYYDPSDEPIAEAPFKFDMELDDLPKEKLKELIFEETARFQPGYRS
From the text: • 1. M. W. Pantoliana, E. C. Petrella, J. D. Kwasnoski, V. S. Lobanov, J. Myslik, E. Graf, T. Carver, E. Asel, B. A. Springer, P. Lane, F. R. Salemme, High-density miniaturized thermal shift assays as a general strategy for drug discovery, J. Biomol. Screen 6 (2001) 429-440 • 2. J. F. Brandts, L.-N. Lin, Study of strong to ultratight protein interactions using differential scanning calorimetry, Biochemistry 29 (1990) 6927-6940 • 3. Mayhood, T. W., Windsor, W. T., Ligand binding affinity determined by temperature-dependent circular dichroism: Cyclin-dependent kinase 2 inhibitors, Analytical Biochemistry 345 (2005) 187-197 Coupled ERK2 (cERK) Assay:
14 μl of kinase buffer (10 mM Tris.HCl pH 7.2, 10 mM MgCl2, 0.01% Tween-20, 1 mM DTT) containing 0.4 ng unphosphorylated Mouse ERK2 protein was added to each well of a black 384-well assay plate. […] DMSO concentration during initial incubation is 6.7%. ERK2 activity was determined to be insensitive to DMSO concentrations up to 20%. ERK2 was then activated and it's kinase activity measured by the addition of 10 μl kinase buffer with the following components (final concentration per reaction): 2 ng active (phosphorylated) human MEK1 protein and 4 μM (total) ERK2 IMAP substrate peptides (3.9 μM unlabeled IPTTPITTTYFFFK-CONH2 and 100 nM IPTTPITTTYFFFK(5-carboxyfluorescein)-CONH2) and 30 μM ATP. DMSO concentration during ERK activation was 4%. After one hour, reactions were terminated by addition of 60 μl IMAP detections beads in binding buffer (Molecular Devices). Binding was allowed to equilibrate for 30 minutes before reading the plate on an LJL Analyst Fluorescence Polarization plate reader. […] Active compounds were reconfirmed in an independent assay.

[3] = target: fully phosphorylated, active Mouse ERK2 protein (Mus musculus, UniProt P63085); test: Active ERK2 (aERK) assay, IMAP format; format: biochemical; settings: 30 min preincubation; 1 μM substrate peptide, 30 μM ATP; fluorescence polarization; read-out: aERK2 IC50
Sequence of fully phosphorylated, active Mouse ERK2 protein (P63085 whole entry): as above
Method: Active ERK2 (aERK) Assay:
Activated ERK2 activity was also determined in the IMAP assay format using the procedure outlined above. 1 μl of 25× compound was added to 14 μl of kinase buffer containing 0.25 ng fully phosphorylated, active Mouse ERK2 protein. Following a 30 minute incubation, the reactions were initiated by addition of 10 μl of kinase buffer containing 1 μM ERK2 IMAP substrate peptide (0.9 μM unlabeled IPTTPITTTYFFFK--CONH2 and 100 nM IPTTPITTTYFFFK(5-carboxyfluorescein)-CONH2) and 30 μM ATP. Reactions proceeded for 30 minutes before termination by addition of 60 μl IMAP detection beads in binding buffer. Plates were read as above after 30 minute binding equilibration. Active compounds were reconfirmed in an independent assay.

Sequence of ERK protein (P28482 2-360): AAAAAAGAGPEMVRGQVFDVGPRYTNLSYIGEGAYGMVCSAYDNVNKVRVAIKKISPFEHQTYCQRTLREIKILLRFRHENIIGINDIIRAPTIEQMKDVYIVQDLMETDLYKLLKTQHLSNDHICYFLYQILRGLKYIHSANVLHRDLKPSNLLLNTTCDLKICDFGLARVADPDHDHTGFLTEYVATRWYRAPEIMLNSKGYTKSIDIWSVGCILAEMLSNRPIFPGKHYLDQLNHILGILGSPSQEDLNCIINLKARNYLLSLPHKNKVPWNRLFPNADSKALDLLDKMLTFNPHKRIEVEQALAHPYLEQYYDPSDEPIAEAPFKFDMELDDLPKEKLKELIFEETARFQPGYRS

| SMILES | Kd [1] [nM] | IC50 [2] [nM] | IC50 [3] [nM] |
| --- | --- | --- | --- |
| O=C(Nc1ccc2[nH]nc(-c3ccncc3)c2c1)C1CN(Cc2ccccc2F)CCS1 (stereo not drawn) [Compound 10, 4-[(2-FLUOROPHENYL)METHYL]-N-[3-(4-PYRIDINYL)-1H-INDAZOL-5-YL]-2-THIOMORPHOLINECARBOXAMIDE] | 15 | 36.4 | 77.2 |
| O=C(Nc1ccc2[nH]nc(-c3ccncc3)c2c1)C1CCN(Cc2ccccc2F)C1 (stereo not drawn) [Compound 65, 1-[(2-FLUOROPHENYL)METHYL]-N-[3-(4-PYRIDINYL)-1H-INDAZOL-5-YL]-3-PYRROLIDINECARBOXAMIDE] | 29.4 | 77.1 | 100 |
| N#Cc1ccccc1N1CCCC(C(=O)Nc2ccc3[nH]nc(-c4ccncc4)c3c2)C1 (stereo not drawn) [Compound 55, 1-(2-CYANOPHENYL)-N-[3-(4-PYRIDINYL)-1H-INDAZOL-5-YL]-3-PIPERIDINECARBOXAMIDE] | 23 | 91.5 | 82.3 |
| O=C(Nc1ccc2[nH]nc(-c3ccncc3)c2c1)C1CN(Cc2cc(Cl)cc(Cl)c2)CCO1 (stereo not drawn) [Compound 50, 4-[(3,5-DICHLOROPHENYL)METHYL]-N-[3-(4-PYRIDINYL)-1H-INDAZOL-5-YL]-2-MORPHOLINECARBOXAMIDE] | 500 | 8840 | 8680 |
| O=C(Nc1ccc2[nH]nc(-c3ccncc3)c2c1)C1CNCCO1 (stereo not drawn) [Compound 16, N-[3-(4-PYRIDINYL)-1H-INDAZOL-5-YL]-2-MORPHOLINECARBOXAMIDE] | 13500 | 2140 | 852 |
| O=C(Nc1ccc2[nH]nc(-c3ccncc3)c2c1)[C@H]1CN(Cc2ccccc2)CCN1 [Compound 59, 4-(PHENYLMETHYL)-N-[3-(4-PYRIDINYL)-1H-INDAZOL-5-YL]-2(R)-PIPERAZINECARBOXAMIDE] | 21 | 21.6 | 16.3 |
| COc1ccccc1CN1CCOC(C(=O)Nc2ccc3[nH]nc(-c4ccncc4)c3c2)C1 (stereo not drawn) [Compound 35, 4-[(2-METHOXYPHENYL)METHYL]-N-[3-(4-PYRIDINYL)-1H-INDAZOL-5-YL]-2-MORPHOLINECARBOXAMIDE] | 79 | 80.9 | 37.9 |
| O=C(Nc1ccc2[nH]nc(-c3ccncc3)c2c1)C1CN(Cc2ccccc2)CCC12OCCO2 (stereo not drawn) [Compound 72, 8-(PHENYLMETHYL)-N-[3-(4-PYRIDINYL)-1H-INDAZOL-5-YL]-1,4-DIOXA-8-AZASPIRO[4.5]DECANE-6-CARBOXAMIDE] | 222 | – | 1000 |
| CC(c1ccccc1)N1CCC[C@H](C(=O)Nc2ccc3[nH]nc(-c4ccncc4)c3c2)C1 (stereo partly drawn) [Compound 73, 1-(1-PHENYLETHYL)-N-[3-(4-PYRIDINYL)-1H-INDAZOL-5-YL]-3(S)-PIPERIDINECARBOXAMIDE] | 25.9 | – | 192 |
| O=C(Nc1ccc2[nH]nc(-c3ccncc3)c2c1)C1CN(CCCc2ccccc2)CCS1 (stereo not drawn) [Compound 67, 4-(3-PHENYLPROPYL)-N-[3-(4-PYRIDINYL)-1H-INDAZOL-5-YL]-2-THIOMORPHOLINECARBOXAMIDE] | – | – | 1000 |
| O=C(Nc1ccc2[nH]nc(-c3ccncc3)c2c1)C1CN(CCc2ccccc2)CCS1 (stereo not drawn) [Compound 68, 4-(2-PHENYLETHYL)-N-[3-(4-PYRIDINYL)-1H-INDAZOL-5-YL]-2-THIOMORPHOLINECARBOXAMIDE] | – | – | 895 |
| O=C(Nc1ccc2[nH]nc(-c3ccncc3)c2c1)[C@@H]1CCN(Cc2ccccc2)C1 [Compound 62, 1-(PHENYLMETHYL)-N-[3-(4-PYRIDINYL)-1H-INDAZOL-5-YL]-3(R)-PYRROLIDINECARBOXAMIDE] | 34.5 | – | 287 |
| N#Cc1ccc(CN2CCOC(C(=O)Nc3ccc4[nH]nc(-c5ccncc5)c4c3)C2)cc1 (stereo not drawn) [Compound 30, 4-[(4-CYANOPHENYL)METHYL]-N-[3-(4-PYRIDINYL)-1H-INDAZOL-5-YL]-2-MORPHOLINECARBOXAMIDE] | 3290 | 1280 | – |
| O=C(Nc1ccc2[nH]nc(-c3ccncc3)c2c1)C1CN(Cc2cc(C(F)(F)F)ccc2F)CCO1 (stereo not drawn) [Compound 42, 4-[[2-FLUORO-5-(TRIFLUOROMETHYL)PHENYL]METHYL]-N-[3-(4-PYRIDINYL)-1H-INDAZOL-5-YL]-2-MORPHOLINECARBOXAMIDE] | 1260 | 2660 | – |
| O=C(Nc1ccc2[nH]nc(-c3ccncc3)c2c1)C1CN(Cc2ccsc2)CCS1 (stereo not drawn) [Compound 14, N-[3-(4-PYRIDINYL)-1H-INDAZOL-5-YL]-4-(3-THIENYLMETHYL)-2-THIOMORPHOLINECARBOXAMIDE] | 34 | 183 | – |
| N#Cc1cccc(CN2CCOC(C(=O)Nc3ccc4[nH]nc(-c5ccncc5)c4c3)C2)c1 (stereo not drawn) [Compound 31, 4-[(3-CYANOPHENYL)METHYL]-N-[3-(4-PYRIDINYL)-1H-INDAZOL-5-YL]-2-MORPHOLINECARBOXAMIDE] | 2720 | 1180 | – |
| O=C(Nc1ccc2[nH]nc(-c3ccncc3)c2c1)C1CCCN(Cc2ccccc2)C1 (stereo not drawn) [Compound 24, 1-(PHENYLMETHYL)-N-[3-(4-PYRIDINYL)-1H-INDAZOL-5-YL]-3-PIPERIDINECARBOXAMIDE] | 20 | 239 | – |
| O=C(Nc1ccc2[nH]nc(-c3ccncc3)c2c1)C1CN(Cc2cc(F)ccc2F)CCO1 (stereo not drawn) [Compound 51, 4-[(2,5-DIFLUOROPHENYL)METHYL]-N-[3-(4-PYRIDINYL)-1H-INDAZOL-5-YL]-2-MORPHOLINECARBOXAMIDE] | 727 | 400 | – |
| CN1CC(Cc2ccccc2)CC(C(=O)Nc2ccc3[nH]nc(-c4ccncc4)c3c2)C1 (stereo not drawn) [Compound 78, 1-METHYL-5-(PHENYLMETHYL)-N-[3-(4-PYRIDINYL)-1H-INDAZOL-5-YL]-3-PIPERIDINECARBOXAMIDE] | – | – | 1.9 |
| O=C(Nc1ccc2[nH]nc(-c3ccncc3)c2c1)C1CN(Cc2cccnc2)CCS1 (stereo not drawn) [Compound 8, N-[3-(4-PYRIDINYL)-1H-INDAZOL-5-YL]-4-(3-PYRIDINYLMETHYL)-2-THIOMORPHOLINECARBOXAMIDE] | 4610 | 1070 | – |
| O=C(Nc1ccc2[nH]nc(-c3ccncc3)c2c1)C1CN(Cc2ccccc2Br)CCS1 (stereo not drawn) [Compound 6, 4-[(2-BROMOPHENYL)METHYL]-N-[3-(4-PYRIDINYL)-1H-INDAZOL-5-YL]-2-THIOMORPHOLINECARBOXAMIDE] | 38 | 114 | – |
| O=C(Nc1ccc2[nH]nc(-c3ccncc3)c2c1)C1CCCN(Cc2ccccc2Br)C1 (stereo not drawn) [Compound 21, 1-[(2-BROMOPHENYL)METHYL]-N-[3-(4-PYRIDINYL)-1H-INDAZOL-5-YL]-3-PIPERIDINECARBOXAMIDE] | 4 | 130 | – |
